Results published in patent publication US20170100396A1 (priority 2015, published 2017).

System: influenza A virus (IAV) A/Aichi/2/68 (H3N2)
Assay: microbe, parasite or virus in culture
Type: cell-based, influenza A virus in MDCK cells
Settings: not given

SMILES | CPE (result in words)
COC(=O)[C@H]1CC[C@H](NC(=O)[C@H](NC(=O)c2c[nH]c3ncc(C4CC4)nc23)C2CCCCC2)CC1 | Active

Same assay, conditions: Influenza A virus, H3N2, MDCK, 48 h, read-out: CPE IC50

SMILES | IC50
CC(C)(NC(=O)c1c[nH]c2ncc(C3CC3)nc12)C(=O)N1CCCC1 | > 100 µM
O=C(N[C@@H](C(=O)Nc1ccccc1)C1CC1)c1c[nH]c2ncc(C3CC3)nc12 | > 100 µM
O=C(N[C@@H](C(=O)N1CCC[C@@H](C(=O)N2CCCC2)C1)C1CC1)c1c[nH]c2ncc(C3CC3)nc12 | > 100 µM
COc1ccc(NC(=O)[C@H](NC(=O)c2c[nH]c3ncc(C4CC4)nc23)C2CC2)cc1 | > 100 µM
O=C(N[C@@H](C(=O)NCc1ccccc1)C1CC1)c1c[nH]c2ncc(C3CC3)nc12 | 18.2 µM
CC(C)c1cnc2[nH]cc(C(=O)NCCCN3CCOCC3)c2n1 | > 100 µM
CC(C)c1cnc2[nH]cc(C(=O)NC3(C#N)CC3)c2n1 | 34.7 µM
O=C(N[C@@H](C(=O)N1CCCCC1)C1CC1)c1c[nH]c2ncc(C3CC3)nc12 | > 100 µM
O=C(N[C@@H](C(=O)N1CCC[C@@H](C(=O)N2CCCCC2)C1)C1CC1)c1c[nH]c2ncc(C3CC3)nc12 | > 100 µM
COc1ccc(CNC(=O)[C@H](NC(=O)c2c[nH]c3ncc(C4CC4)nc23)C2CC2)cc1 | 10.3 µM
O=C(N[C@@H](C(=O)NCCC(=O)N1CCOCC1)C1CC1)c1c[nH]c2ncc(C3CC3)nc12 | > 100 µM
CC(C)C[C@@H](NC(=O)c1c[nH]c2ncc(C3CC3)nc12)C(=O)N1CC2(CNC2)C1 | > 100 µM
CC(C)C[C@@H](NC(=O)c1c[nH]c2ncc(C3CC3)nc12)C(=O)NCC(=O)NCc1ccccn1 | > 100 µM
O=C(N[C@@H](C(=O)N1CCC[C@H](C(=O)N2CCOCC2)C1)C1CC1)c1c[nH]c2ncc(C3CC3)nc12 | > 100 µM
O=C(N[C@@H](C(=O)NCc1ccncc1)C1CC1)c1c[nH]c2ncc(C3CC3)nc12 | 40.4 µM
O=C(N[C@@H](C(=O)NC1CCCc2ccccc21)C1CC1)c1c[nH]c2ncc(C3CC3)nc12 (some centres unmarked) | > 100 µM
O=C(N[C@@H](C(=O)NCc1cccc(F)c1)C1CC1)c1c[nH]c2ncc(C3CC3)nc12 | 9.2 µM

SMILES | IC50
O=C(N[C@@H](C(=O)N1CC(F)(F)C1)C1CC1)c1c[nH]c2ncc(C3CC3)nc12 | > 100 µM
O=C(N[C@@H](C(=O)N1CCOCC1)C1CC1)c1c[nH]c2ncc(C3CC3)nc12 | > 100 µM
O=C(N[C@@H](C(=O)N1CCC[C@@H](C(=O)N2CCOCC2)C1)C1CC1)c1c[nH]c2ncc(C3CC3)nc12 | > 100 µM
CC(C)C[C@@H](NC(=O)c1c[nH]c2ncc(C3CC3)nc12)C(=O)NCC(=O)NCc1ccccc1 | > 100 µM
O=C(N[C@@H](C(=O)N1CCC[C@H](C(=O)N2CCCC2)C1)C1CC1)c1c[nH]c2ncc(C3CC3)nc12 | > 100 µM
CN1CCN(C(=O)CCNC(=O)[C@H](NC(=O)c2c[nH]c3ncc(C4CC4)nc23)C2CC2)CC1 | > 100 µM
O=C(N[C@@H](C(=O)NCCC(=O)N1CCCCC1)C1CC1)c1c[nH]c2ncc(C3CC3)nc12 | > 100 µM
CCCNC(=O)c1c[nH]c2ncc(C(C)C)nc12 | 18.1 µM
O=C(N[C@@H](C(=O)NCCc1ccc(Cl)cc1)C1CC1)c1c[nH]c2ncc(C3CC3)nc12 | > 100 µM
O=C(N[C@@H](C(=O)NCc1ccccc1F)C1CC1)c1c[nH]c2ncc(C3CC3)nc12 | 14.6 µM
CC(C)C[C@@H](NC(=O)c1c[nH]c2ncc(C3CC3)nc12)C(=O)NCCC(=O)NCc1ccccn1 | > 100 µM
N#CC(NC(=O)[C@H](NC(=O)c1c[nH]c2ncc(C3CC3)nc12)C1CC1)c1ccc(C(F)(F)F)cc1 (some centres unmarked) | > 10 µM
O=C(N[C@@H](C(=O)NCCC(=O)N1CCS(=O)(=O)CC1)C1CC1)c1c[nH]c2ncc(C3CC3)nc12 | > 100 µM
CC(C)C[C@@H](NC(=O)c1c[nH]c2ncc(C3CC3)nc12)C(=O)NCCC(=O)NCc1ccccc1 | > 100 µM
O=C(N[C@@H](C(=O)N1CCC[C@H](C(=O)N2CCCCC2)C1)C1CC1)c1c[nH]c2ncc(C3CC3)nc12 | 33.1 µM
O=C(NCC(=O)N1CCCC1)c1c[nH]c2ncc(Br)nc12 | > 100 µM
CC1(CNC(=O)c2c[nH]c3ncc(-c4ccccc4Cl)nc23)CCC(=O)N1 (centres unmarked) | > 100 µM
